The record followed here is patent US8968758B2, “Material for forming a multi-level antimicrobial surface coating and its preparation” (The Hong Kong University of Science and Technology …, priority 2008, dated 2015).

The subject of assay [1] is S. aureus. Kind of assay: Kirby-Bauer disk diffusion test. The assay is classed as cell-based. The conditions noted are these: wafer coated and dried. As to the method: Standard Kirby-Bauer disk diffusion test was performed using S. aureus. Sterile TSA plates were evenly inoculated with a loopful (ca. 100 μl) of S. aureus inoculum from the broth culture (ca. 10^6.cm^−3). […] A filter paper coated with 100 μl of 70% ethanol without drying was used as positive control
The Kirby-Bauer disk diffusion test was conducted, a standard antimicrobial test method using impregnated wafers to test whether particular bacteria are susceptible by comparing the area of clearing that surrounds the wafer where bacteria are not capable of growing (called a zone of inhibition).

Assay [2] has as its system Gram positive and Gram negative bacteria. Kind of assay: Contact-killing on surface coated with composition B at various contact times. The assay is classed as cell-based, B. subtilis, S. aureus, E. coli. Particulars: 10 min contact, without encapsulation. As for the experimental part:
A hundred microliters of 10^7.cm^−3 bacteria cell suspension was placed in contact with the coated surface at ambient condition (23±2° C., 70% R.H.) in a sterilized biological safety cabinet (NuAire, Nu-425-400E). Three sets of runs of five samples each were carried out at the fixed contact times of 1, 5, 10 and 30 min. The samples were immersed into a primary subculture tube containing 20 ml neutralizer for 30 min to stabilize the surviving bacteria cells. The sterile neutralizer solution was freshly prepared by adding 1% (v/v) 0.1 M Na2S2O3 to 600 ml of 0.85% (w/v) normal saline (NaCl, RDH) solution containing 0.1% (v/v) (final concentration) of polyoxyethylenesorbitan monooleate (Tween 80) followed by autoclave at 121° C. for 20 min. A hundred microliters aliquots from the neutralizer were cultured on a TSA plate. The numbers of viable bacteria were counted after incubating the plates for 24 h at 37±0.1° C. The sample was drip-dried and transferred to a second subculture tube containing 20 ml of sterile nutrient broth (Nutrient broth no. 2, Oxoid) for 10 min. A hundred microliters aliquots from the nutrient broth were cultured on a TSA plate. The numbers of viable bacteria were counted after incubating the plates for 24 h at 37±0.1° C.

As for ethanol [70% alcohol], the zone of inhibition entry in assay [1] is on record as “do not show zones of inhibition”.

Take `[O][Cl+][O-]` [chlorine dioxide]: the “antimicrobial effect (in words)” value in assay [2] was “ineffective”.
